Assay results published in US10570184B2, “GLP-1/glucagon receptor co-agonists for medical use” (Novo Nordisk A/S, priority 2014, dated 2020).
Starred links: 1 amine or outer side, 2 acyl side, 3 side chain; linkers in the order of their positions; H or OH if unused. Non-standard residues stand in square brackets, D forms with d. Residues, ends and D or L forms follow the SMILES beside them. Groups on a side chain read outwards from the residue. *: point of attachment. C18 diacid = O=C(O)CCCCCCCCCCCCCCCCC(=O)*; γGlu = O=C(O)[C@H](CCC(=O)[*:2])N[*:1]; Ac4c = NC1(C(=O)O)CCC1; AEEA = NCCOCCOCC(=O)O; Aib = CC(C)(N)C(=O)O

target: T1, human GLP-1 receptor (Homo sapiens, UniProt P43220); experiment: Assay (II)(a) GLP-1 receptor binding, 125I-GLP-1 displacement SPA on BHK membranes; conditions: without presence of serum albumin; read-out: GLP-1R IC50 (nM) [Assay (II)(a)]
T1 construct: expressed in transfected cells; host or cells: membranes of BHK cells (parent BHKTS13), clone FCW467-12A
Procedure, shortened: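 Membranes from BHK cells (clone FCW467-12A) stably expressing human GLP-1R were incubated with serially diluted compounds (8×10EE-13 to 8×10EE-7 M before addition) and [125I]-GLP-1-(7-36)NH2 with WGA SPA beads, 2 h at 30° C, pH 7.4. IC50 taken from displacement by non-linear regression. Run at ≤0.001% or 2.0% final serum albumin.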

T1 sequence (P43220 24-463): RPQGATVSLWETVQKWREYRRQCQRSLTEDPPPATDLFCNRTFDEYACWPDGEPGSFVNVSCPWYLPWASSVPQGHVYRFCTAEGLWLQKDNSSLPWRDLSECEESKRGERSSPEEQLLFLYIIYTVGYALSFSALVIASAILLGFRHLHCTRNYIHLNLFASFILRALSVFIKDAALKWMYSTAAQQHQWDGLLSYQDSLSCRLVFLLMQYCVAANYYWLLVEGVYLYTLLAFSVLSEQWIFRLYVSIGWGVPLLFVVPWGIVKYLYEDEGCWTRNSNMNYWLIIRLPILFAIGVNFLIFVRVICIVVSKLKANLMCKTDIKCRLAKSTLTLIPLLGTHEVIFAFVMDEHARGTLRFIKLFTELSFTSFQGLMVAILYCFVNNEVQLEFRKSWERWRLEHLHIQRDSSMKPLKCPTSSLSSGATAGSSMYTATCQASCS

Row | Structure (SMILES) | IC50
1 | CC[C@H](C)[C@H](NC(=O)[C@H](CC(C)C)NC(=O)[C@H](Cc1c[nH]c2ccccc12)NC(=O)[C@H](CCC(N)=O)NC(=O)[C@@H](NC(=O)[C@H](Cc1ccccc1)NC(=O)[C@H](CC(=O)O)NC(=O)[C@H](CCCNC(=N)N)NC(=O)[C@H](C)NC(=O)[C@H](CCCNC(=N)N)NC(=O)[C@H](CCCNC(=N)N)NC(=O)[C@H](CO)NC(=O)[C@H](CCC(=O)O)NC(=O)[C@H](CC(C)C)NC(=O)[C@H](Cc1ccc(O)cc1)NC(=O)[C@H](CCCNC(=N)N)NC(=O)[C@H](CO)NC(=O)[C@H](Cc1ccc(O)cc1)NC(=O)[C@H](CC(=O)O)NC(=O)[C@H](CO)NC(=O)[C@@H](NC(=O)[C@H](Cc1ccccc1)NC(=O)[C@@H](NC(=O)CNC(=O)[C@H](CCC(N)=O)NC(=O)C1(NC(=O)[C@@H](N)Cc2c[nH]cn2)CCC1)[C@@H](C)O)[C@@H](C)O)C(C)C)C(=O)N[C@@H](CCCCNC(=O)CC[C@H](NC(=O)COCCOCCNC(=O)CC[C@H](NC(=O)COCCOCCNC(=O)CC[C@H](NC(=O)COCCOCCNC(=O)CC[C@H](NC(=O)CC[C@H](NC(=O)CCCCCCCCCCCCCCCCC(=O)O)C(=O)O)C(=O)O)C(=O)O)C(=O)O)C(=O)O)C(=O)N[C@H](C(N)=O)[C@@H](C)O [Chem. 36, N^ε28-[(4S)-4-carboxy-4-[[2-[2-[2-[[(4S)-4-carboxy-4-[[2-[2-[2-[[(4S)-4-carboxy-4-[[2-[2-[2-[[(4S)-4-carboxy-4-[[(4S)-4-carboxy-4-(17-carboxyheptadecanoylamino)butanoyl]amino]butanoyl]amino]ethoxy]ethoxy]acetyl]amino]butanoyl]amino]ethoxy]ethoxy]acetyl]amino]butanoyl]amino]ethoxy]ethoxy]acetyl]amino]butanoyl]-[Acb2,Arg12,Glu15,Arg20,Ile27,Lys28]-Glucagon amide] (H-H[Ac4c]QGTFTSDYSRYLESRRARDFVQWLIK([γGlu-AEEA-γGlu-AEEA-γGlu-AEEA-γGlu-γGlu-C18 diacid])T-NH2; N-terminus assumed) | 1.5 nM
2 | CC[C@H](C)[C@H](NC(=O)[C@H](CC(C)C)NC(=O)[C@H](Cc1c[nH]c2ccccc12)NC(=O)[C@H](C)NC(=O)[C@@H](NC(=O)[C@H](Cc1ccccc1)NC(=O)[C@H](CC(=O)O)NC(=O)[C@H](CCC(N)=O)NC(=O)[C@H](C)NC(=O)[C@H](CCCNC(=N)N)NC(=O)[C@H](CCCNC(=N)N)NC(=O)[C@H](CO)NC(=O)[C@H](CCC(=O)O)NC(=O)[C@H](CC(C)C)NC(=O)[C@H](Cc1ccc(O)cc1)NC(=O)[C@H](CCCCN)NC(=O)[C@H](CO)NC(=O)[C@H](Cc1ccc(O)cc1)NC(=O)[C@H](CC(=O)O)NC(=O)[C@H](CO)NC(=O)[C@@H](NC(=O)[C@H](Cc1ccccc1)NC(=O)[C@@H](NC(=O)CNC(=O)[C@H](CCC(N)=O)NC(=O)C(C)(C)NC(=O)[C@@H](N)Cc1c[nH]cn1)[C@@H](C)O)[C@@H](C)O)C(C)C)C(=O)N[C@@H](CCCCNC(=O)CC[C@H](NC(=O)CC[C@H](NC(=O)COCCOCCNC(=O)COCCOCCNC(=O)CC[C@H](NC(=O)CCCCCCCCCCCCCCCCC(=O)O)C(=O)O)C(=O)O)C(=O)O)C(=O)N[C@H](C(N)=O)[C@@H](C)O [Chem. 34, N^ε28-[(4S)-4-carboxy-4-[[(4S)-4-carboxy-4-[[2-[2-[2-[[2-[2-[2-[[(4S)-4-carboxy-4-(17-carboxyheptadecanoylamino)butanoyl]amino]ethoxy]ethoxy]acetyl]amino]ethoxy]ethoxy]acetyl]amino]butanoyl]amino]butanoyl]-[Aib2,Glu15,Ala24,Ile27,Lys28]-Glucagon amide] (H-H[Aib]QGTFTSDYSKYLESRRAQDFVAWLIK([γGlu-γGlu-AEEA-AEEA-γGlu-C18 diacid])T-NH2) | 2.2 nM

Results, then the compound that gave them:

Row | IC50 | Structure (SMILES)
3 | 0.1 nM | CC[C@H](C)[C@H](NC(=O)[C@H](CC(C)C)NC(=O)[C@H](Cc1c[nH]c2ccccc12)NC(=O)[C@H](CCC(N)=O)NC(=O)[C@@H](NC(=O)[C@H](Cc1ccccc1)NC(=O)[C@H](CC(=O)O)NC(=O)[C@H](CCCNC(=N)N)NC(=O)[C@H](C)NC(=O)[C@H](CCCNC(=N)N)NC(=O)[C@H](CCCNC(=N)N)NC(=O)[C@H](C)NC(=O)[C@H](CC(=O)O)NC(=O)[C@H](CC(C)C)NC(=O)[C@H](Cc1ccc(O)cc1)NC(=O)[C@H](CCCCN)NC(=O)[C@H](CO)NC(=O)[C@H](CC(C)C)NC(=O)[C@H](CC(=O)O)NC(=O)[C@H](CO)NC(=O)[C@@H](NC(=O)[C@H](Cc1ccccc1)NC(=O)[C@@H](NC(=O)CNC(=O)[C@H](CCC(N)=O)NC(=O)C(C)(C)NC(=O)[C@@H](N)Cc1c[nH]cn1)[C@@H](C)O)[C@@H](C)O)C(C)C)C(=O)N[C@@H](CC(N)=O)C(=O)N[C@@H](CCCCNC(=O)CC[C@H](NC(=O)CC[C@H](NC(=O)COCCOCCNC(=O)COCCOCCNC(=O)CC[C@H](NC(=O)CCCCCCCCCCCCCCCCC(=O)O)C(=O)O)C(=O)O)C(=O)O)C(N)=O [Chem. 20, N^ε29-[(4S)-4-carboxy-4-[[(4S)-4-carboxy-4-[[2-[2-[2-[[2-[2-[2-[[(4S)-4-carboxy-4-(17-carboxyheptadecanoylamino)butanoyl]amino]ethoxy]ethoxy]acetyl]amino]ethoxy]ethoxy]acetyl]amino]butanoyl]amino]butanoyl]-[Aib2,Leu10,Ala16,Arg20,Ile27,Lys29]-Glucagon amide] (H-H[Aib]QGTFTSDLSKYLDARRARDFVQWLINK([γGlu-γGlu-AEEA-AEEA-γGlu-C18 diacid])-NH2; N-terminus assumed)
4 | 0.1 nM | CC[C@H](C)[C@H](NC(=O)[C@H](CC(C)C)NC(=O)[C@H](Cc1c[nH]c2ccccc12)NC(=O)[C@H](CCCCNC(=O)COCCOCCNC(=O)COCCOCCNC(=O)CC[C@H](NC(=O)CC[C@H](NC(=O)CC[C@H](NC(=O)CCCCCCCCCCCCCCCCC(=O)O)C(=O)O)C(=O)O)C(=O)O)NC(=O)[C@@H](NC(=O)[C@H](Cc1ccccc1)NC(=O)[C@H](CCC(=O)O)NC(=O)[C@H](CCCNC(=N)N)NC(=O)[C@H](C)NC(=O)[C@H](CCCNC(=N)N)NC(=O)[C@H](CCCNC(=N)N)NC(=O)[C@H](C)NC(=O)[C@H](CC(=O)O)NC(=O)[C@H](CC(C)C)NC(=O)[C@H](Cc1ccc(O)cc1)NC(=O)[C@H](CCCCN)NC(=O)[C@H](CO)NC(=O)[C@H](Cc1ccc(O)cc1)NC(=O)[C@H](CC(=O)O)NC(=O)[C@H](CO)NC(=O)[C@@H](NC(=O)[C@H](Cc1ccccc1)NC(=O)[C@@H](NC(=O)CNC(=O)[C@H](CCC(N)=O)NC(=O)C(C)(C)NC(=O)[C@@H](N)Cc1c[nH]cn1)[C@@H](C)O)[C@@H](C)O)C(C)C)C(=O)N[C@@H](CO)C(=O)N[C@H](C(N)=O)[C@@H](C)O [Chem. 4, N^ε24-[2-[2-[2-[[2-[2-[2-[[(4S)-4-carboxy-4-[[(4S)-4-carboxy-4-[[(4S)-4-carboxy-4-(17-carboxyheptadecanoylamino)butanoyl]amino]butanoyl]amino]butanoyl]amino]ethoxy]ethoxy]acetyl]amino]ethoxy]ethoxy]acetyl]-[Aib2,Ala16,Arg20,Glu21,Lys24,Ile27,Ser28]-Glucagon amide] (H-H[Aib]QGTFTSDYSKYLDARRAREFVK([AEEA-AEEA-γGlu-γGlu-γGlu-C18 diacid])WLIST-NH2; N-terminus assumed)
5 | 0.2 nM | CC[C@H](C)[C@H](NC(=O)[C@H](CC(C)C)NC(=O)[C@H](Cc1c[nH]c2ccccc12)NC(=O)[C@H](CCC(N)=O)NC(=O)[C@@H](NC(=O)[C@H](Cc1ccccc1)NC(=O)[C@H](CC(=O)O)NC(=O)[C@H](CCCNC(=N)N)NC(=O)[C@H](C)NC(=O)[C@H](CCCNC(=N)N)NC(=O)[C@H](CCCNC(=N)N)NC(=O)[C@H](C)NC(=O)[C@H](CC(=O)O)NC(=O)[C@H](CC(C)C)NC(=O)[C@H](Cc1ccc(O)cc1)NC(=O)[C@H](CCCCN)NC(=O)[C@H](CO)NC(=O)[C@H](CC(C)C)NC(=O)[C@H](CC(=O)O)NC(=O)[C@H](CO)NC(=O)[C@@H](NC(=O)[C@H](Cc1ccccc1)NC(=O)[C@@H](NC(=O)CNC(=O)[C@H](CCC(N)=O)NC(=O)C(C)(C)NC(=O)[C@@H](N)Cc1c[nH]cn1)[C@@H](C)O)[C@@H](C)O)C(C)C)C(=O)N[C@@H](CO)C(=O)N[C@@H](CCCCNC(=O)CC[C@H](NC(=O)CC[C@H](NC(=O)COCCOCCNC(=O)COCCOCCNC(=O)CC[C@H](NC(=O)CCCCCCCCCCCCCCCCC(=O)O)C(=O)O)C(=O)O)C(=O)O)C(N)=O [Chem. 27, N^ε29-[(4S)-4-carboxy-4-[[(4S)-4-carboxy-4-[[2-[2-[2-[[2-[2-[2-[[(4S)-4-carboxy-4-(17-carboxyheptadecanoylamino)butanoyl]amino]ethoxy]ethoxy]acetyl]amino]ethoxy]ethoxy]acetyl]amino]butanoyl]amino]butanoyl]-[Aib2,Leu10,Ala16,Arg20,Ile27,Ser28,Lys29]-Glucagon amide] (H-H[Aib]QGTFTSDLSKYLDARRARDFVQWLISK([γGlu-γGlu-AEEA-AEEA-γGlu-C18 diacid])-NH2; N-terminus assumed)
